From patent US7842682B2, “Boronated metal-phthalocyanines, process for their preparation, pharmaceutical compositions comprising them and use thereof” (L. Molteni & C. Dei Fratelli Alitti, priority 2003, dated 2010)
Entries after “also recorded” stand apart in the source; their conditions may differ.

How the values were obtained:
[1] = tested on: B16F1 transplanted pigmented melanoma; assay: BNCT: rate of tumour growth after thermal neutron irradiation in melanoma bearing mice; type: in vivo, C57/BL6 mice
Experimental: FIG. 7: Rate of tumour growth as a function of post-irradiation time in C57/BL6 mice bearing a B16F1 transplanted pigmented melanoma which have been intravenously injected with 6.0 mg/kg boronated phthalocyanine prepared according to Example 23, as a DOPC liposomal preparation, and at 24 hours from injection were irradiated by thermal neutrons for 20 and 30 min. The growth profile of the radiosensitized pigmented melanoma is compared with that obtained for untreated control mice.

[2] = Photostability (photobleaching) under visible light irradiation, spectrophotometric; type: physicochemical; conditions: irradiated as for FIG. 1; compared with not-boronated (unsubstituted zinc) phthalocyanine
Source text: FIG. 2A: Absorption spectrum and determination of the degraded unsubstituted zinc phthalocyanine, irradiated according to the experimental conditions described above for FIG. 1.
It is known that most phthalocyanines are subjected to a more or less extensive photobleaching under visible light irradiation. It is therefore important to define if the rate constant of this process is too fast, so that the active principle is photodegraded at a high rate, which could negatively interfere with the photosensitization of cells or other substrates. […] Results obtained with a not substituted phthalocyanine are reported. In FIG. 2A as a reference. From comparison of the plots shown in FIGS. 2A and 2B it may be concluded that • 1- the boron substituted molecules prepared according to the present invention are as useful photosensitizers able to absorb red visible light as the unsubstituted ones; • 2- the photobleaching kinetics undergoes only limited changes when the phthalocyanine structure is modified by introduction of boronated groups. […] Assessment of Activity on Biological Substrates

[3] = tested on: B16F1 transplanted pigmented melanoma; assay: PDT: rate of tumour growth after red light irradiation in melanoma bearing mice; type: in vivo, C57/BL6 mice
Experimental: The tumour response is most evident if the irradiations are carried out at 3 h after injection of the photosensitizer.

[4] = tested on: melanocytes deriving from murine pigmented melanoma B16-F1; assay: Photosensitization of B16-F1 melanocytes, survival by Trypan Blue exclusion test; type: cell-based; conditions: 24 hrs incubation, DPPC or DOPC liposomal preparation 7 microM; red light 600-750 nm, 50 mW/cm^2; irradiation times as low as 10 min
Experimental: Irradiations were performed as described above for FIG. 1.
Melanocytes were incubated (24 hrs) with a DPCC or DOPC liposomal phthalocyanine preparation (7 microM). After incubation, the cells were washed with PBS and irradiated with red visible light (600-750 nm, 50 mW/cm^2). Survival was determined after the photo-treatment (18-24 hrs) by the Trypan Blue exclusion test. Results for delivered phthalocyanine are summarised in FIG. 3A (DPPC liposomes) and in FIG. 3B (DOPC liposomes).

[5] = Pharmacokinetics and tissue distribution in B16-F1 pigmented melanoma bearing mice; type: in vivo, C57/BL6 mice
Experimental: Toward this aim, once tumours had reached the volumes of […], the boronated phthalocyanine as DPPC liposomal preparation (0.75 mg/kg) or as a DOPC liposomal preparation (3 mg/kg) was systemically administered. […]

| amount of phthalocyanine accumulated in the tumour ([1]; 24 h after i.v. injection in DOPC liposomes) | Substance | tumour necrosis after BNCT ([1]; 6.0 mg/kg i.v. in DOPC liposomes, thermal neutrons at 24 h) | tumour growth after BNCT ([1]; 6.0 mg/kg i.v. in DOPC liposomes, thermal neutrons at 24 h for 20 and 30 min, versus untreated control mice) | photobleaching [2] | rate of tumour growth after PDT ([3]; 6.0 mg/kg i.v., DOPC liposomal preparation, 670 nm, 200 mW/cm^2, 250 J/cm^2) | tumour response by interval between injection and irradiation ([3]; irradiations carried out at 3 h after injection of the photosensitizer) | cell survival after photo-treatment [4] | clearance from plasma ([5]; DPPC liposomes 0.75 mg/kg or DOPC liposomes 3 mg/kg, systemically administered) | clearance from liver and spleen ([5]; delivered via DOPC liposomes, after 1 week from injection) | recovery from liver and spleen ([5]; delivered via liposomes) | amount found in the skin (peritumoural tissue) ([5]; mouse, in vivo) | recovery from the kidneys ([5]; mouse, in vivo) |
| --- | --- | --- | --- | --- | --- | --- | --- | --- | --- | --- | --- | --- |
| sufficient to achieve the BNCT effect | 1,8(11),15(18),22(25)-tetrakis-{[4-(^10B-o-carboran-1-yl)methyl]phenoxy}phthalocyaninate zinc(II) [Example 23] | extensive tumour necrosis | significant delay in tumour growth |  |  |  |  |  |  |  |  |  |
|  | 1,8(11),15(18),22(25)-tetrakis-{[4-(^11B-o-carboran-1-yl)methyl]phenoxy}-phthalocyaninate zinc(II) [Example 21] |  |  | more extensive photobleaching | significant delay in the rate of tumour growth | most evident | almost complete cell mortality | rapid with no product residue at 24 hrs after the treatment | largely cleared | large recovery; also recorded: accumulated in large amounts | small amounts | Very limited amounts |
